# Assay results published in PMC7914897, “Cytotoxic Potential of a-Azepano- and 3-Amino-3,4-SeCo-Triterpenoids” (International Journal of Molecular Sciences, 2021).
# How the values were obtained:
# UO-31 (Renal cancer) = test: NCI-60 screen (SRB, 48 h); conditions: Homo sapiens; for GI50: UO-31; for IC (TGI): UO-31, 48 h, read-out: TGI
# EKVX (NSC lung cancer) = test: NCI-60 screen (SRB, 48 h); conditions: Homo sapiens; for IC (TGI): 48 h, read-out: TGI
# NSC lung cancer subpanel = test: NCI-60 screen, subpanel; conditions: Homo sapiens; for IC (TGI): 48 h, read-out: TGI MG_MID; for GI50: read-out: GI50 MG_MID
# [1] = tested on: MDA-MB-468 (Breast cancer); test: cells; conditions: Homo sapiens; for GI50: MDA-MB-468; for IC (TGI): MDA-MB-468, 48 h, read-out: TGI
# MCF7 (Breast cancer) = test: NCI-60 screen (SRB, 48 h); conditions: Homo sapiens; for GI50: MCF7
# KM12 (Colon cancer) = test: NCI-60 screen (SRB, 48 h); conditions: Homo sapiens; for GI50: KM12; for IC (TGI): KM12, 48 h, read-out: TGI
# BT-549 (Breast cancer) = test: NCI-60 screen (SRB, 48 h); type: cell-based; conditions: Homo sapiens; for IC (TGI): BT-549, 48 h
# RXF 393 (Renal cancer) = test: NCI-60 screen (SRB, 48 h); conditions: Homo sapiens; for GI50: RXF 393; for IC (TGI): RXF 393, 48 h, read-out: TGI
# IGROV1 (Ovarian cancer) = test: NCI-60 screen (SRB, 48 h); conditions: for GI50: IGROV-1
# Breast cancer subpanel = test: NCI-60 screen, subpanel; conditions: Homo sapiens; for IC (TGI): 48 h, read-out: TGI MG_MID; for GI50: read-out: GI50 MG_MID
# OVCAR-3 (Ovarian cancer) = test: cells; conditions: Homo sapiens; for GI50: OVCAR-3
# Prostate cancer subpanel = test: NCI-60 screen, subpanel; conditions: Homo sapiens; for IC (TGI): 48 h, read-out: TGI MG_MID; for GI50: read-out: GI50 MG_MID
# SNB-19 (CNS cancer) = test: NCI-60 screen (SRB, 48 h); conditions: Homo sapiens; for GI50: SNB-19; for IC (TGI): SNB-19, 48 h, read-out: TGI
# MOLT-4 (Leukemia) = test: NCI-60 screen (SRB, 48 h); conditions: Homo sapiens; for GI50: MOLT-4; for IC (TGI): MOLT-4, 48 h, read-out: TGI
# [2] = tested on: NCI-H460 (NSC lung cancer); test: NCI-60 screen (SRB, 48 h); conditions: Homo sapiens; for GI50: NCI-H460
# SF-295 (CNS cancer) = test: NCI-60 screen (SRB, 48 h); conditions: Homo sapiens; for GI50: SF-295; for IC (TGI): SF-295, 48 h, read-out: TGI
# SK-MEL-5 (Melanoma) = test: NCI-60 screen (SRB, 48 h); conditions: Homo sapiens; for GI50: SK-MEL-5; for IC (TGI): SK-MEL-5, 48 h, read-out: TGI
# [3] = tested on: NCI-H322M (NSC lung cancer); test: NCI-60 screen (SRB, 48 h); conditions: Homo sapiens; for IC (TGI): 48 h, read-out: TGI
# Colon Cancer subpanel = test: NCI-60 screen, subpanel; conditions: Homo sapiens; for IC (TGI): 48 h, read-out: TGI MG_MID; for GI50: read-out: GI50 MG_MID
# COLO 205 (Colon cancer) = test: NCI-60 screen (SRB, 48 h); conditions: Homo sapiens; for GI50: COLO 205; for IC (TGI): COLO 205, 48 h, read-out: TGI
# CAKI-1 (Renal cancer) = test: NCI-60 screen (SRB, 48 h); conditions: Homo sapiens; for GI50: CAKI-1; for IC (TGI): CAKI-1, 48 h, read-out: TGI; for CC50: CAKI-1, read-out: LC50
# Renal Cancer subpanel = test: NCI-60 screen, subpanel; conditions: Homo sapiens; for IC (TGI): 48 h, read-out: TGI MG_MID; for GI50: read-out: GI50 MG_MID; for CC50: read-out: LC50 MG_MID
# PC-3 (Prostate cancer) = test: NCI-60 screen (SRB, 48 h); conditions: Homo sapiens; for GI50: PC-3; for IC (TGI): PC-3, 48 h, read-out: TGI
# HL-60(TB) (Leukemia) = test: NCI-60 screen (SRB, 48 h); type: cell-based; conditions: Homo sapiens
smiles,measurement,setting,value
C=C(C)[C@@H]1CC[C@]2(COS(=O)(=O)c3ccc(C)cc3)CC[C@]3(C)[C@@H](CC[C@@H]4[C@@]5(C)CCCNC(C)(C)[C@@H]5CC[C@]43C)[C@@H]12 [Compound 12],GI50,UO-31 (Renal cancer),1.64 µM
same,IC (TGI),UO-31 (Renal cancer),3.04 µM
same,GI50,EKVX (NSC lung cancer),1.62 µM
same,IC (TGI),EKVX (NSC lung cancer),3.11 µM
same,IC (TGI),NSC lung cancer subpanel,3.25 µM
same,GI50,NSC lung cancer subpanel,1.71 µM
same,GI50,[1],1.74 µM
same,IC (TGI),[1],3.33 µM
same,GI50,MCF7 (Breast cancer),1.45 µM
same,GI50,KM12 (Colon cancer),1.84 µM
same,IC (TGI),KM12 (Colon cancer),3.41 µM
same,GI50,BT-549 (Breast cancer); BT-549,1.84 µM
same,IC (TGI),BT-549 (Breast cancer),3.56 µM
same,GI50,RXF 393 (Renal cancer),1.62 µM
same,IC (TGI),RXF 393 (Renal cancer),3.13 µM
same,GI50,IGROV1 (Ovarian cancer); Homo sapiens,1.84 µM
same,Growth % of the Most Sensitive Cell Lines,"IGROV1 (Ovarian cancer); IGROV1, 1 dose 10 µM",−87.10%
same,IC (TGI),Breast cancer subpanel,3.5 µM
same,GI50,Breast cancer subpanel,1.71 µM
same,GI50,OVCAR-3 (Ovarian cancer),1.67 µM
same,IC (TGI),Prostate cancer subpanel,3.15 µM
same,GI50,Prostate cancer subpanel,1.67 µM
same,GI50,SNB-19 (CNS cancer),2.04 µM
same,IC (TGI),SNB-19 (CNS cancer),3.68 µM
same,GI50,MOLT-4 (Leukemia),1.62 µM
same,IC (TGI),MOLT-4 (Leukemia),3.59 µM
same,GI50,[2],1.68 µM
same,GI50,SF-295 (CNS cancer),1.6 µM
same,IC (TGI),SF-295 (CNS cancer),3.01 µM
same,GI50,SK-MEL-5 (Melanoma),1.67 µM
same,IC (TGI),SK-MEL-5 (Melanoma),3.08 µM
same,GI50,[3],1.76 µM
same,IC (TGI),[3],3.16 µM
same,IC (TGI),Colon Cancer subpanel,3.37 µM
same,GI50,Colon Cancer subpanel,1.73 µM
same,GI50,COLO 205 (Colon cancer),1.75 µM
same,IC (TGI),COLO 205 (Colon cancer),3.24 µM
same,GI50,CAKI-1 (Renal cancer),1.74 µM
same,IC (TGI),CAKI-1 (Renal cancer),3.15 µM
same,CC50,CAKI-1 (Renal cancer),5.71 µM
same,IC (TGI),Renal Cancer subpanel,3.26 µM
same,GI50,Renal Cancer subpanel,1.76 µM
same,CC50,Renal Cancer subpanel,5.87 µM
same,GI50,PC-3 (Prostate cancer),1.58 µM
same,IC (TGI),PC-3 (Prostate cancer),3 µM
C=C(C)[C@@H]1CC[C@]2(C)[C@H](C=CC3=C4C[C@@](C)(CO)CC[C@]4(C)CC[C@]32C)[C@@]1(C)CCCN [Compound 20],GI50,UO-31 (Renal cancer),1.34 µM
same,IC (TGI),UO-31 (Renal cancer),2.65 µM
same,CC50,"UO-31 (Renal cancer); UO-31, read-out: LC50",5.24 µM
same,GI50,EKVX (NSC lung cancer),1.6 µM
same,IC (TGI),EKVX (NSC lung cancer),3.1 µM
same,CC50,EKVX (NSC lung cancer); read-out: LC50,6.01 µM
same,IC (TGI),NSC lung cancer subpanel,3.38 µM
same,GI50,NSC lung cancer subpanel,1.71 µM
same,CC50,NSC lung cancer subpanel; read-out: LC50 MG_MID,6.24 µM
same,GI50,[1],1.58 µM
same,IC (TGI),[1],3.2 µM
same,CC50,"[1]; MDA-MB-468, read-out: LC50",6.47 µM
same,GI50,MCF7 (Breast cancer),1.6 µM
same,IC (TGI),"MCF7 (Breast cancer); MCF7, 48 h, read-out: TGI",3.4 µM
same,CC50,"MCF7 (Breast cancer); MCF7, read-out: LC50",7.23 µM
same,GI50,KM12 (Colon cancer),1.6 µM
same,IC (TGI),KM12 (Colon cancer),3.02 µM
same,CC50,"KM12 (Colon cancer); KM12, read-out: LC50",5.67 µM
same,GI50,BT-549 (Breast cancer); BT-549,1.64 µM
same,IC (TGI),BT-549 (Breast cancer),3.07 µM
same,CC50,"BT-549 (Breast cancer); BT-549, read-out: LC50 (the source's name)",5.78 µM
same,GI50,RXF 393 (Renal cancer),1.62 µM
same,IC (TGI),RXF 393 (Renal cancer),3.07 µM
same,CC50,"RXF 393 (Renal cancer); RXF 393, read-out: LC50",5.81 µM
same,GI50,IGROV1 (Ovarian cancer); Homo sapiens,1.5 µM
same,IC (TGI),"IGROV1 (Ovarian cancer); Homo sapiens, IGROV-1, 48 h, read-out: TGI",2.95 µM
same,CC50,"IGROV1 (Ovarian cancer); Homo sapiens, IGROV-1, read-out: LC50",5.8 µM
same,IC (TGI),Breast cancer subpanel,3.41 µM
same,GI50,Breast cancer subpanel,1.68 µM
same,CC50,Breast cancer subpanel; read-out: LC50 MG_MID,6.94 µM
same,GI50,OVCAR-3 (Ovarian cancer),1.48 µM
same,IC (TGI),"OVCAR-3 (Ovarian cancer); OVCAR-3, 48 h, read-out: TGI",2.85 µM
same,CC50,"OVCAR-3 (Ovarian cancer); OVCAR-3, read-out: LC50",5.46 µM
same,IC (TGI),Prostate cancer subpanel,3.22 µM
same,GI50,Prostate cancer subpanel,1.71 µM
same,GI50,SNB-19 (CNS cancer),1.75 µM
same,IC (TGI),SNB-19 (CNS cancer),3.17 µM
same,CC50,"SNB-19 (CNS cancer); SNB-19, read-out: LC50",5.74 µM
same,GI50,MOLT-4 (Leukemia),1.78 µM
same,IC (TGI),MOLT-4 (Leukemia),3.86 µM
same,GI50,[2],1.71 µM
same,IC (TGI),"[2]; NCI-H460, 48 h, read-out: TGI",3.33 µM
same,CC50,"[2]; NCI-H460, read-out: LC50",6.49 µM
same,GI50,SF-295 (CNS cancer),1.78 µM
same,IC (TGI),SF-295 (CNS cancer),3.21 µM
same,CC50,"SF-295 (CNS cancer); SF-295, read-out: LC50",5.79 µM
same,GI50,SK-MEL-5 (Melanoma),1.72 µM
same,IC (TGI),SK-MEL-5 (Melanoma),3.19 µM
same,GI50,[3],1.57 µM
same,IC (TGI),[3],2.91 µM
same,CC50,[3]; read-out: LC50,5.43 µM
same,GI50,HL-60(TB) (Leukemia),1.58 µM
same,IC (TGI),HL-60(TB) (Leukemia); 48 h,3.62 µM
same,IC (TGI),Colon Cancer subpanel,2.98 µM
same,GI50,Colon Cancer subpanel,1.47 µM
same,CC50,Colon Cancer subpanel; read-out: LC50 MG_MID,5.96 µM
same,GI50,COLO 205 (Colon cancer),1.49 µM
same,IC (TGI),COLO 205 (Colon cancer),3.23 µM
same,CC50,"COLO 205 (Colon cancer); COLO 205, read-out: LC50",6.96 µM
same,GI50,CAKI-1 (Renal cancer),1.52 µM
same,IC (TGI),CAKI-1 (Renal cancer),2.85 µM
same,CC50,CAKI-1 (Renal cancer),5.34 µM
same,IC (TGI),Renal Cancer subpanel,3.07 µM
same,GI50,Renal Cancer subpanel,1.61 µM
same,CC50,Renal Cancer subpanel,5.86 µM
same,GI50,PC-3 (Prostate cancer),1.7 µM
same,IC (TGI),PC-3 (Prostate cancer),3.28 µM
same,CC50,"PC-3 (Prostate cancer); PC-3, read-out: LC50",6.33 µM
